Measurements published in patent EP3925949A1, “AZIDO COMPOUNDS AND METHOD FOR MONITORING ACID CERAMIDASE ACTIVITY IN INTACT CELLS USING THEM” (Consejo Superior de Investigaciones Científicas (CSIC), priority 2020, dated 2021).

Assays:
ACER2 = biological target: T1, ACER2 (Homo sapiens, UniProt Q5QJU3); experiment: Hydrolysis of RBM5-177 by microsomes of ACER2 overexpressing cells, UPLC-HRMS; assay type: biochemical; details: microsomes from ACER2 overexpressing cells, RBM5-177 5 µM, 30 min
T1 construct: expressed in transfected cells; host or cells: HeLa T-Rex ACER2-TET-ON, tetracycline-induced; microsomes
Method: Cell lysates obtained from HeLa T-Rex ACER1-TET-ON, HeLa T-Rex ACER2-TET-ON and MEF5 overexpressing ACER3 cells were transferred to ultracentrifuge tubes and were spun at 100000 g for 1 h at 4°C. Pellets were resuspended in a 0.25 M saccharose solution and protein concentration was determined as specified below.
Cells were seeded at 5 × 10^5 cells/mL into 6 well plates (1 mL/well) and were allowed to adhere for 24 h. Medium was replaced with fresh medium containing RBM5-177, RBM5-019 or RBM2-37 (5 µM final concentration). After 30 min, medium was removed; cells were washed with 400 µL PBS and harvested with 400 µL Trypsin-EDTA and 600 µL of medium. NC recombinant enzyme, lysates from A375-AC overexpressing cells, MEF5 or microsomes from HeLa T-Rex ACER1-TET-ON and HeLa T-Rex […] activity buffer. Cell pellets were resuspended with 100 µL of H2O and mixed with 750 µL of methanol: chloroform, 2:1. Samples were heated at 48°C overnight and next day, 75 µL of 1 M KOH in methanol were added, followed by 2 h incubation at 37°C. Afterwards, the saponification was neutralised with 75 µL of 1 M acetic acid and solvent was removed using a Speed Vac Savant SPD131 DDA (Thermo Scientific). […]

mitochondria = experiment: Confocal co-localization of probe/CO-1 staining with Mitotracker; assay type: cell-based; details: A375/+Dox, RBM5-177 probe, FB1 100 µM 24 h or SOCLAC 5 µM 1 h, independent treatments
Method: Cells were seeded at 1 × 10^5 cells/mL on glass-bottom plates and allowed to adhere for 24 h. For golgi staining, cells were incubated with 40 µL/well of CellLight Golgi-RFP BacMam 2.0 for 24 h. Medium was replaced with fresh medium containing RBM5-177, RBM5-019, RBM2-37 or RBM2-31 (5 µM final concentration) and cells were incubated for 20 min at 37 °C. After this time, the medium was replaced with fresh medium containing CO-1 (1 µM final concentration), and cells were incubated for 10 min. Then cells were washed 3 times with DMEM for 5 min at 37 °C, 75 nM LysoTracker Red DND-99 or 75 nM Mitotracker in phenol red-free DMEM was added to stain lysosomes or mitochondria, and cells were kept in the incubator for microscope analysis. Staining was viewed with a Zeiss LSM 880 confocal microscope or Leica TCS SP8-Hyvolution. Image analysis was performed using Fiji software.^[7] To measure the Manders's and Pearson's coefficients a threshold including organelles and discarding the background was set. Co-localization coefficients were measured using the JaCoP plugin (S. Bolte et al. J. Microsc. 2006, 224, 213-232) on the different stacks of images (at least n=4) with each stack containing 3-10 cells.

SMILES | RBM5-19 formation (hydrolysis as substrate) (ACER2) | effect on mitochondria labelling (mitochondria)
CCCCCCCC(=O)N[C@@H](C)[C@H](O)CCCCCCCCCCCCN=[N+]=[N-] [RBM5-177, N-((2S,3R)-15-azido-3-hydroxypentadecan-2-yl)octanamide] | transformed into the free amine only by AC | 
CCCCCCCCCCCCC/C=C/[C@@H](O)[C@H](CO)NC(=O)CCl [SOCLAC] |  | mitochondria labelling was precluded
